# Laboratory results reported in US11357779B2 (G1 Therapeutics, Inc., priority 2018, dated 2022).
# Read-outs that look alike come from different tables or passages of the source.
# Experiment: Noncompartmental pharmacokinetic parameters (Cmax, Tmax, AUC, Racc) in QD and BID cohorts of Form B
# Type: in vivo, human
# Details: human, plasma, oral
# Protocol: Analysis of plasma concentration versus time data for calculation of standard pharmacokinetic (PK) parameters following oral administration was conducted using Phoenix WinNonlin version 6.3 using actual blood sampling times.
# The following pharmacokinetic parameters were calculated from the concentration versus time data obtained in Example 1 for each of the above QD (200 mg, 300 mg, 400 mg, 500 mg, or 650 mg dosed) and BID (100 mg, 150 mg, or 200 mg doses) Form B of Compound II dosage cohorts: • Cmax—the observed peak plasma concentration determined from the plasma concentration versus time data obtained on Day 1 and Day 29, as applicable; • Tmax—the time to reach the observed peak plasma concentration from the plasma concentration versus time data obtained on Day 1 and Day 29, as applicable; • AUC—area under the plasma concentration versus time curve during a dosing interval on Day 1 and Day 29, as applicable; and • Racc—accumulation ratio calculated as AUCDay 29/AUCDay 1.
structure (smiles),measurement,setting,value
"CC(C)N1CCN(c2ccc(Nc3ncc4cc5n(c4n3)C3(CCCCC3)CNC5=O)nc2)CC1 [Compound I, 2′-((5-(4-isopropylpiperazin-1-yl)pyridin-2-yl)amino)-7′,8′-dihydro-6′H-spiro[cyclohexane-1,9′-pyrazino[1′,2′:1,5]pyrrolo[2,3-d]pyrimidin]-6′-one]",AUC(0-t),"100 mg, Cohort 6, 100 mg BID of Form B, Day 1, read-out: AUClast, Mean",59.7 ng·h/mL
same,AUC(0-t),"100 mg, Cohort 6, 100 mg BID of Form B, Day 1, read-out: AUClast, Median",53.1 ng·h/mL
same,Cmax,"100 mg, Cohort 6, 100 mg BID of Form B, Day 1, read-out: Cmax, Mean",10.2 ng/mL
same,Cmax,"100 mg, Cohort 6, 100 mg BID of Form B, Day 1, read-out: Cmax, Median",8.95 ng/mL
same,Tmax,"100 mg, Cohort 6, 100 mg BID of Form B, Day 1, read-out: Tmax, Mean",3.17 h
same,Tmax,"100 mg, Cohort 6, 100 mg BID of Form B, Day 1, read-out: Tmax, Median",3 h
same,AUC(0-t),"100 mg, Compound I, 100 mg BID of Form B, Cohort 6, Day 29, read-out: AUClast (Mean)",101 ng·h/mL
same,AUC(0-t),"100 mg, Compound I, 100 mg BID of Form B, Cohort 6, Day 29, read-out: AUClast (Median)",88.2 ng·h/mL
same,Cmax,"100 mg, Compound I, 100 mg BID of Form B, Cohort 6, Day 29, read-out: Cmax (Mean)",12.3 ng/mL
same,Cmax,"100 mg, Compound I, 100 mg BID of Form B, Cohort 6, Day 29, read-out: Cmax (Median)",11.8 ng/mL
same,Tmax,"100 mg, Compound I, 100 mg BID of Form B, Cohort 6, Day 29, read-out: Tmax (Mean)",4.4 h
same,Tmax,"100 mg, Compound I, 100 mg BID of Form B, Cohort 6, Day 29, read-out: Tmax (Median)",3 h
same,AUC(0-t),"150 mg, Compound I, 150 mg BID of Form B, Cohort 7, Day 1, read-out: AUClast (Mean)",130 ng·h/mL
same,AUC(0-t),"150 mg, Compound I, 150 mg BID of Form B, Cohort 7, Day 1, read-out: AUClast (Median)",141 ng·h/mL
same,Cmax,"150 mg, Compound I, 150 mg BID of Form B, Cohort 7, Day 1, read-out: Cmax (Mean)",21.7 ng/mL
same,Cmax,"150 mg, Compound I, 150 mg BID of Form B, Cohort 7, Day 1, read-out: Cmax (Median)",24.6 ng/mL
same,Tmax,"150 mg, Compound I, 150 mg BID of Form B, Cohort 7, Day 1, read-out: Tmax (Mean)",3.67 h
same,Tmax,"150 mg, Compound I, 150 mg BID of Form B, Cohort 7, Day 1, read-out: Tmax (Median)",4 h
same,AUC(0-t),"150 mg, Compound I, 150 mg BID of Form B, Cohort 7, Day 29, read-out: AUClast (Mean)",455 ng·h/mL
same,AUC(0-t),"150 mg, Compound I, 150 mg BID of Form B, Cohort 7, Day 29, read-out: AUClast (Median)",334 ng·h/mL
same,Cmax,"150 mg, Compound I, 150 mg BID of Form B, Cohort 7, Day 29, read-out: Cmax (Mean)",50.2 ng/mL
same,Cmax,"150 mg, Compound I, 150 mg BID of Form B, Cohort 7, Day 29, read-out: Cmax (Median)",36.9 ng/mL
same,Tmax,"150 mg, Compound I, 150 mg BID of Form B, Cohort 7, Day 29, read-out: Tmax (Mean)",4 h
same,Tmax,"150 mg, Compound I, 150 mg BID of Form B, Cohort 7, Day 29, read-out: Tmax (Median)",4 h
same,AUC(0-t),"200 mg, Cohort 1, 200 mg QD of Form B, Day 1, read-out: AUClast, Mean",215 ng·h/mL
same,AUC(0-t),"200 mg, Cohort 1, 200 mg QD of Form B, Day 1, read-out: AUClast, Median",232 ng·h/mL
same,Cmax,"200 mg, Cohort 1, 200 mg QD of Form B, Day 1, read-out: Cmax, Mean",25.5 ng/mL
same,Cmax,"200 mg, Cohort 1, 200 mg QD of Form B, Day 1, read-out: Cmax, Median",27 ng/mL
same,Tmax,"200 mg, Cohort 1, 200 mg QD of Form B, Day 1, read-out: Tmax, Mean",4.17 h
same,Tmax,"200 mg, Cohort 1, 200 mg QD of Form B, Day 1, read-out: Tmax, Median",4 h
same,AUC(0-t),"200 mg, Compound I, 200 mg BID of Form B, Cohort 7, Day 1, read-out: AUClast (Mean)",118 ng·h/mL
same,AUC(0-t),"200 mg, Compound I, 200 mg BID of Form B, Cohort 7, Day 1, read-out: AUClast (Median)",125 ng·h/mL
same,Cmax,"200 mg, Compound I, 200 mg BID of Form B, Cohort 7, Day 1, read-out: Cmax (Mean)",17.3 ng/mL
same,Cmax,"200 mg, Compound I, 200 mg BID of Form B, Cohort 7, Day 1, read-out: Cmax (Median)",17.6 ng/mL
same,Tmax,"200 mg, Compound I, 200 mg BID of Form B, Cohort 7, Day 1, read-out: Tmax (Mean)",5 h
same,Tmax,"200 mg, Compound I, 200 mg BID of Form B, Cohort 7, Day 1, read-out: Tmax (Median)",5 h
same,AUC(0-t),"200 mg, Compound I, 200 mg BID of Form B, Cohort 8, Day 29, read-out: AUClast (Mean)",197 ng·h/mL
same,AUC(0-t),"200 mg, Compound I, 200 mg BID of Form B, Cohort 8, Day 29, read-out: AUClast (Median)",205 ng·h/mL
same,Cmax,"200 mg, Compound I, 200 mg BID of Form B, Cohort 8, Day 29, read-out: Cmax (Mean)",26.3 ng/mL
same,Cmax,"200 mg, Compound I, 200 mg BID of Form B, Cohort 8, Day 29, read-out: Cmax (Median)",30.5 ng/mL
same,Tmax,"200 mg, Compound I, 200 mg BID of Form B, Cohort 8, Day 29, read-out: Tmax (Mean)",6.67 h
same,Tmax,"200 mg, Compound I, 200 mg BID of Form B, Cohort 8, Day 29, read-out: Tmax (Median)",4 h
same,AUC(0-t),"200 mg, Compound I, 200 mg QD of Form B, Cohort 1, Day 29, read-out: AUClast (Mean)",229 ng·h/mL
same,AUC(0-t),"200 mg, Compound I, 200 mg QD of Form B, Cohort 1, Day 29, read-out: AUClast (Median)",227 ng·h/mL
same,Cmax,"200 mg, Compound I, 200 mg QD of Form B, Cohort 1, Day 29, read-out: Cmax (Mean)",20.4 ng/mL
same,Cmax,"200 mg, Compound I, 200 mg QD of Form B, Cohort 1, Day 29, read-out: Cmax (Median)",21.3 ng/mL
same,Tmax,"200 mg, Compound I, 200 mg QD of Form B, Cohort 1, Day 29, read-out: Tmax (Mean)",4.2 h
same,Tmax,"200 mg, Compound I, 200 mg QD of Form B, Cohort 1, Day 29, read-out: Tmax (Median)",4 h
same,AUC(0-t),"300 mg, Cohort 2, 300 mg QD of Form B, Day 1, upon exclusion of data for patient that vomited immediately after dosing, read-out: AUClast, Mean",567 ng·h/mL
